Test results as given in patent US20230119479A1, “A HISTONE DEACETYLASE INHIBITOR HAVING A NITROGEN-CONTAINING AROMATIC HETEROCYCLYL GROUP” (SHIONOGI & CO., LTD., priority 2019, published 2023).

Assays:
[1] = Platelet toxicity test using human blood progenitor cells (WST); type: cell-based; settings: human bone marrow CD34+ progenitor cells, maximum concentration 25 μM
Procedure: Test Example 2: Platelet Toxicity Test Using Human Blood Progenitor Cells
Human bone marrow CD34+ progenitor cells (Lonza, 2M-101B) stored at −80° C. were thawed, spun down at 150 g for 10 minutes at 20° C., and a medium (StemSpan Expansion Supplement, STEM CELL TECHNOLOGIES, ST-02696) to which cytokines (StemSpan SFEM II, STEM CELL TECHNOLOGIES, ST-09655) was added was added to adjust to 2×10^4/well, the mixture was seeded in 12well non-coat dish (Corning, 3513), was incubated for 10 days at 37° C., 5% CO2. After 10 days, the cells were collected and spun down at 150 g for 10 minutes at 20° C., and a medium (StemSpan Expansion Supplement) containing cytokines (StemSpan SFEM II) was added so that the number of cells became 2×10^5 cells/ml. 50 μl of the cell suspension was seeded to each well of a 96-well plate (Corning, 3596) and allowed to stand overnight in an incubator at 37° C., 5% CO2. The next day, 50 μl of the test compound was treated to each well and allowed to stand for 48 hours in the incubator at 37° C., 5% CO2 (n=2). At this time, the test compound dissolved in 100% DMSO was serially diluted with DMSO at a 3-fold ratio, and then a medium containing cytokine was added to adjust the final concentration to 25, 8.33, 2.78, 0.93, 0.31, 0.1 μM. After that, 10 μl of WST (Cell count reagent SF, Nacalai Tesque Inc., 07553-44) was added to each well, and the mixture was allowed to stand in the incubator for 4 hours at 37° C., 5% CO2, and then the multi-label reader 2030 ARVO X4 (PerkinElmer) was used to measure the absorbance. At this time, the absorbance at 450 nm and the absorbance at 620 nm were obtained, and the difference between 450 nm and 620 nm was used as the measured value. The measured values were analyzed by Excel and TIBCO Spotfire, and IC50 values were calculated. At this time, for control (−), the well without cells was set as n=6 for one row, and the average value was calculated, and for control (+), the well in which DMSO was added to the cells so as to have the same concentration as the compound treatment group was set as n=6 for one row, and the average value was calculated and corrected for each plate. For the test compound, the average value of n=2 was used.

[2] = tested on: HDACs other than HDAC2 (HDAC2 knockout K562 cells); test: Evaluation of HDAC2 selectivity: H3K9 histone acetylation in HDAC2 knockout K562 cells (AlphaLISA); type: cell-based; settings: Homo sapiens, maximum concentration 83.3 μM, 100% = SAHA-treated group, read-out: maximum inhibition rate (H3K9 histone acetylation);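 also: 0% inhibition equals DMSO-treated group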
Procedure: Test Example 3: Evaluation of HDAC2 Selectivity
K562 cells were cultured in RPMI1640 medium (SIGMA, R8758) containing 10% FBS (Hyclone, SH30070.03) and 1% penicillin streptomycin (Nacalai Tesque, 26252-94). CompoZr (registered trademark) Zinc Finger Nuclease (Merck) targeting HDAC2 sequences was transfected into K562 cells by electroporation using Nucleofector (Lonza). The cells after transfection were subjected to limiting dilution, and DNA sequencing was performed on the cell clones in which mutations were detected by the PCR method. Cell clones lacking a base number that was not a multiple of 3 in both alleles were identified, and a single-cell cloning was performed on the cell clones to produce HDAC2 knockout K562 cells. It was confirmed that the expression of HDAC2 was not detected by Western blotting in the prepared cells.
By evaluating the H3K9 histone acetylation-enhancing activity of the test compound using HDAC2 knockout K562 cells, the inhibitory activity against HDACs other than HDAC2 was evaluated.
HDAC2 knockout K562 cells stored in liquid nitrogen were thawed and cultured in RPMI1640 medium (Nacalai Tesque, 30264-85) for 2 to 4 days. Using Echo555 (Beckman Coulter), the test compound was dispensed to the assay plate (Corning, 4513) at 37.5 nL/well, and then HDAC2 knockout K562 cells were seeded to 125 cells/4.5 μL/well, and stirred. At this time, the test compound was treated at 8 points (n=2) in the 3-fold dilution series from the maximum concentration of 83.3 μM. After culturing at 37° C. and 5% CO2 overnight, 1.5 μL/well of Lysis buffer (PerkinElmer, AL009F1) was added, and after incubating at room temperature for 15 minutes, 3 μL/well of Extraction buffer (PerkinElmer, AL009F2) was added and the mixture was incubated for 10 minutes at room temperature. Then, 5× antibody solution (prepared by diluting anti-H3K9 Acceptor beads (PerkinElmer, AL114M) 75-fold with a detection buffer prepared by diluting 10×Cell-Histone Detection buffer (PerkinElmer, AL009F3) 10-fold with ultrapure water, and diluting Biotinylated anti H3 antibody (PerkinElmer, AL118M) diluted 150 times with the detection buffer) was added at 3 μL/well, and after incubating at room temperature for 60 minutes, then 5× donor beads solution (prepared by diluting Streptavidin Donor beads (PerkinElmer, 6760002) 75 fold with the detection buffer) was added at 3 μL/well, and the mixture was incubated again at room temperature for 60 minutes, and then the emission value was measured using PHERAstar (BMG LABTECH) (excitation=680 nm, […]). […] For cell toxicity, cell viability rate was evaluated by the PrestoBlue method.

[3] = BA test (oral absorption); type: in vivo; settings: plasma; mice or rats; oral vs intravenous administration
Procedure: Materials and methods for experiments to evaluate oral absorption (1) Experimental animals: mice or rats were used. (2) Rearing condition: mice or rats were allowed free access to solid feed and sterilized tap water. (3) Setting of dosage and grouping: Oral administration and intravenous administration were performed with the predetermined dosage. Grouping was set as below. (Dosage was changed per compound)
Oral administration 2 to 60 μmol/kg or 1 to 30 mg/kg (n=2 to 3)
Intravenous administration 1 to 30 μmol/kg or 0.5 to 10 mg/kg (n=2 to 3)
(4) Preparation of administration solutions: Oral administration was performed as suspension or solution. Intravenous administration was performed after solubilization. (5) Routes of administration: Oral administration was performed mandatory into the stomach by oral sonde. Intravenous administration was performed from caudal vein by syringes with needle. (6) Evaluation items: Blood was collected serially and concentration of a compound of the present invention in plasma was measured by LC/MS/MS. (7) Statistical analysis: About transition of concentration of a compound of the present invention in plasma, the area under the plasma concentration versus time curve (AUC) was calculated by non-linear least-squares method program, and bioavailability (BA) of a compound of the present invention was calculated from dosages and AUCs of the oral administration group and the intravenous administration group. The dilution concentration or the dilution solvent were changed as necessary.

bioavailability [3] [%] | SMILES | IC50 at 48 h [1] [µM] | inhibition at up to 83.3 µM [2] [%]
32.1 | C[C@H](F)COc1cnc(C(=O)Nc2cc(-c3ccc(F)nc3)ccc2N)cn1 (racemic) [Compound I-125] | > 25 | 6
19.6 | Cn1cc(-c2cnc(C(=O)Nc3nc(-c4cccs4)ccc3N)cn2)cn1 [Compound I-017] | > 25 | 5
43.7 | Cn1cc(-c2cnc(C(=O)Nc3nc(-n4cccc4)ccc3N)cn2)cn1 [Compound I-023] | > 25 | 8
38.4 | Cn1cc(-c2cnc(C(=O)Nc3cc(-c4ccc(F)nc4)ccc3N)cn2)cn1 [Compound I-080] | > 25 | 7
22.4 | N#Cc1ccc(C(=O)Nc2cc(-c3ccc(F)nc3)ccc2N)nc1 [Compound I-092] | > 25 | 6
22.7 | CCOc1cnc(C(=O)Nc2cc(-c3ccc(F)nc3)ccc2N)cn1 [Compound I-118] | > 25 | 8
37.2 | Cn1cc(-c2ccc(N)c(NC(=O)c3cnc(C4CC4)cn3)c2)cn1 [Compound I-130] | > 25 | –
